Among the data in patent publication US8580825B2, “Oxadiazole inhibitors of leukotriene production” (Boehringer Ingelheim International GmbH, priority 2010, dated 2013) are IC50 values, retold here.

The target in experiment [1] is T1, recombinant human FLAP protein (Homo sapiens, UniProt P20292).
T1 construct: made in house; host or cells: Sf9 insect cells (100,000xg membrane fraction used)
T1 sequence (P20292 1-161): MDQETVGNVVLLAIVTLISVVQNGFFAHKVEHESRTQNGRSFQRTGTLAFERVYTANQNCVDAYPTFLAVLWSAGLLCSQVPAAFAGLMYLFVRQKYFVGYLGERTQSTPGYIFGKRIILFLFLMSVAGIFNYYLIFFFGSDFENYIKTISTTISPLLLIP
Briefly: FLAP binding assay (Scintillation Proximity Assay, displacement of [125I]L-691,831). The note with it: read-out: FLAP SPA IC50. In a few lines: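 Scintillation proximity displacement of [125I]L-691,831 (0.08 nM) from membranes of sf9 cells expressing recombinant human FLAP (5 μg/well) on WGA SPA beads, pH 7.5 Tris buffer. Plates shaken 2 h before counting. Non-specific binding defined with 10 μM unlabelled L-691,831.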
Background: Scintillation proximity formats need no separation of bound from free tracer.

Experiment [2] relates to synthesis of LTB4 in human whole blood. As to the kind of experiment: human whole blood LTB4 production inhibition assay. The experiment is classed as cell-based. Conditions: calcimycin stimulated, read-out: hWB LTB4 IC50. In a few lines:
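Readout: plasma LTB4 by antibody-based HTRF. Compound added to heparinized human whole blood, 15 min 37° C; calcimycin 20 μM final (PBS pH 7.4), 30 min 37° C; spun 1500×g 5 min, plasma taken.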

Molecules are shown by their SMILES.

With `CC(C)(O)Cn1cc(-c2nc([C@@](C)(c3ccc(-c4ccc(N)nc4)nc3)C3CC3)no2)cn1` [Example 139, 1-(4-{3-[(R)-1-(6′-Amino-[2,3′]bipyridinyl-5-yl)-1-cyclopropyl-ethyl]-[1,2,4]oxadiazol-5-yl}-pyrazol-1-yl)-2-methyl-propan-2-ol], the values for the IC50 in experiment [1] and in experiment [2] were 33 nM and 68 nM, respectively.

With `CN(C)C(=O)Cn1cc(-c2nc([C@@](C)(c3ccc(-c4ccc(N)nc4)nc3)C3CC3)no2)cn1` [Example 140, 2-(4-{3-[(R)-1-(6′-Amino-[2,3′]bipyridinyl-5-yl)-1-cyclopropyl-ethyl]-[1,2,4]oxadiazol-5-yl}-pyrazol-1-yl)-N,N-dimethyl-acetamide], the IC50 in experiment [1] was determined as 44 nM; in experiment [2], 150 nM.

Turning to `CC(C)[C@](C)(c1ccc(-c2cnc(N)nc2)nc1)c1noc(-c2cnn(CC(=O)NC(C)(C)C)c2)n1` [Example 141, 2-[4-(3-{(R)-1-[6-(2-Amino-pyrimidin-5-yl)-pyridin-3-yl]-1,2-dimethyl-propyl}-1,2,4-oxadiazol-5-yl)-pyrazol-1-yl]-N-tert-butyl-acetamide], the values for the 50% inhibitory concentration (IC50) in experiment [1] and in experiment [2] were 8.3 nM and 68 nM, respectively.

In the case of `CC(C)NC(=O)Cn1cc(-c2nc([C@@](C)(c3ccc(-c4cnc(N)nc4)nc3)C(C)C)no2)cn1` [Example 142, 2-[4-(3-{(R)-1-[6-(2-Amino-pyrimidin-5-yl)-pyridin-3-yl]-1,2-dimethyl-propyl}-1,2,4-oxadiazol-5-yl)-pyrazol-1-yl]-N-isopropyl-acetamide], the IC50 in experiment [1] amounted to 16 nM; in experiment [2] it was 85 nM.

On to `CC(C)[C@](C)(c1ccc(-c2cnc(N)nc2)nc1)c1noc(-c2cnn(CC(=O)N(C)C(C)(C)C)c2)n1` [Example 143, 2-[4-(3-{(R)-1-[6-(2-Amino-pyrimidin-5-yl)-pyridin-3-yl]-1,2-dimethyl-propyl}-1,2,4-oxadiazol-5-yl)-pyrazol-1-yl]-N-tert-butyl-N-methyl-acetamide], for which the IC50 in experiment [1] was found to be 9.2 nM; in experiment [2] it was 51 nM.

As to `CC(C)[C@](C)(c1ccc(-c2cnc(N)nc2)nc1)c1noc(-c2cnn(CC(=O)N(C)C3CC3)c2)n1` [Example 144, 2-[4-(3-{(R)-1-[6-(2-Amino-pyrimidin-5-yl)-pyridin-3-yl]-1,2-dimethyl-propyl}-1,2,4-oxadiazol-5-yl)-pyrazol-1-yl]-N-cyclopropyl-N-methyl-acetamide], the IC50 in experiment [1] worked out at 13 nM; in experiment [2] it was 68 nM.

As to `CC(C)CNC(=O)Cn1cc(-c2nc([C@@](C)(c3ccc(-c4cnc(N)nc4)nc3)C(C)C)no2)cn1` [Example 145, 2-[4-(3-{(R)-1-[6-(2-Amino-pyrimidin-5-yl)-pyridin-3-yl]-1,2-dimethyl-propyl}-1,2,4-oxadiazol-5-yl)-pyrazol-1-yl]-N-isobutyl-acetamide], the IC50 in experiment [1] is 14 nM; in experiment [2], 110 nM.

On to `CC(C)[C@](C)(c1ccc(-c2cnc(N)nc2)nc1)c1noc(-c2cnn(CC(=O)N(C)CC3CCCO3)c2)n1` (stereo partly drawn) [Example 146, 2-[4-(3-{(R)-1-[6-(2-Amino-pyrimidin-5-yl)-pyridin-3-yl]-1,2-dimethyl-propyl}-1,2,4-oxadiazol-5-yl)-pyrazol-1-yl]-N-methyl-N-(tetrahydro-furan-2-ylmethyl)-acetamide], for which the concentration for half-maximal inhibition (IC50) in experiment [1] was 9.4 nM; in experiment [2], 53 nM.

`CC(C)[C@](C)(c1ccc(-c2cnc(N)nc2)nc1)c1noc(-c2cnn(CC(=O)NC3CC3)c2)n1` [Example 147, 2-[4-(3-{(R)-1-[6-(2-Amino-pyrimidin-5-yl)-pyridin-3-yl]-1,2-dimethyl-propyl}-1,2,4-oxadiazol-5-yl)-pyrazol-1-yl]-N-cyclopropyl-acetamide]: the values for the IC50 in experiment [1] and in experiment [2] were 8.6 nM and 170 nM, respectively.

Turning to `CC(C)[C@](C)(c1ccc(-c2cnc(N)nc2)nc1)c1noc(-c2cnn(CC(=O)NCC3CCCO3)c2)n1` (stereo partly drawn) [Example 148, 2-[4-(3-{(R)-1-[6-(2-Amino-pyrimidin-5-yl)-pyridin-3-yl]-1,2-dimethyl-propyl}-1,2,4-oxadiazol-5-yl)-pyrazol-1-yl]-N-(tetrahydro-furan-2-ylmethyl)-acetamide], the IC50 stood at 22 nM in experiment [1] and 290 nM in experiment [2].

On to `CCNC(=O)Cn1cc(-c2nc([C@@](C)(c3ccc(-c4cnc(N)nc4)nc3)C(C)C)no2)cn1` [Example 149, 2-[4-(3-{(R)-1-[6-(2-Amino-pyrimidin-5-yl)-pyridin-3-yl]-1,2-dimethyl-propyl}-1,2,4-oxadiazol-5-yl)-pyrazol-1-yl]-N-ethyl-acetamide], for which the IC50 worked out at 15 nM in experiment [1] and 140 nM in experiment [2].

In the case of `COC1CCN(C(=O)Cn2cc(-c3nc([C@@](C)(c4ccc(-c5cnc(N)nc5)nc4)C(C)C)no3)cn2)C1` (stereo partly drawn) [Example 150, 2-[4-(3-{(R)-1-[6-(2-Amino-pyrimidin-5-yl)-pyridin-3-yl]-1,2-dimethyl-propyl}-1,2,4-oxadiazol-5-yl)-pyrazol-1-yl]-1-(3-methoxy-pyrrolidin-1-yl)-ethanone], the IC50 in experiment [1] is 42 nM; in experiment [2], 180 nM.

Take `CC(C)[C@](C)(c1ccc(-c2cnc(N)nc2)nc1)c1noc(-c2cnn(CC(=O)N3CCOCC3)c2)n1` [Example 151, 2-[4-(3-{(R)-1-[6-(2-Amino-pyrimidin-5-yl)-pyridin-3-yl]-1,2-dimethyl-propyl}-1,2,4-oxadiazol-5-yl)-pyrazol-1-yl]-1-morpholin-4-yl-ethanone]: the IC50 in experiment [1] came to 32 nM; in experiment [2], 190 nM.

Turning to `COCCNC(=O)Cn1cc(-c2nc([C@@](C)(c3ccc(-c4cnc(N)nc4)nc3)C(C)C)no2)cn1` [Example 152, 2-[4-(3-{(R)-1-[6-(2-Amino-pyrimidin-5-yl)-pyridin-3-yl]-1,2-dimethyl-propyl}-1,2,4-oxadiazol-5-yl)-pyrazol-1-yl]-N-(2-methoxy-ethyl)-acetamide], the results for the half-inhibitory concentration (IC50) in experiment [1] and in experiment [2] were 24 nM and 190 nM, respectively.

Regarding `COCCN(C)C(=O)Cn1cc(-c2nc([C@@](C)(c3ccc(-c4cnc(N)nc4)nc3)C(C)C)no2)cn1` [Example 153, 2-[4-(3-{(R)-1-[6-(2-Amino-pyrimidin-5-yl)-pyridin-3-yl]-1,2-dimethyl-propyl}-1,2,4-oxadiazol-5-yl)-pyrazol-1-yl]-N-(2-methoxy-ethyl)-N-methyl-acetamide], the IC50 stood at 16 nM in experiment [1] and 150 nM in experiment [2].

As to `CC(C)[C@](C)(c1ccc(-c2cnc(N)nc2)nc1)c1noc(-c2cnn(CC(=O)NC3CCOCC3)c2)n1` [Example 154, 2-[4-(3-{(R)-1-[6-(2-Amino-pyrimidin-5-yl)-pyridin-3-yl]-1,2-dimethyl-propyl}-1,2,4-oxadiazol-5-yl)-pyrazol-1-yl]-N-(tetrahydro-pyran-4-yl)-acetamide], the IC50 is 21 nM in experiment [1] and 550 nM in experiment [2].

`COC1CCN(C(=O)Cn2cc(-c3nc([C@@](C)(c4ccc(-c5cnc(N)nc5)nc4)C(C)C)no3)cn2)CC1` [Example 155, 2-[4-(3-{(R)-1-[6-(2-Amino-pyrimidin-5-yl)-pyridin-3-yl]-1,2-dimethyl-propyl}-1,2,4-oxadiazol-5-yl)-pyrazol-1-yl]-1-(4-methoxy-piperidin-1-yl)-ethanone]: the IC50 worked out at 19 nM in experiment [1] and 110 nM in experiment [2].

For `CNc1cnc(-c2ccc([C@](C)(c3noc(-c4cnn(CC(C)(C)O)c4)n3)C3CC3)cn2)cn1` [Example 156, 1-[4-(3-{(R)-1-Cyclopropyl-1-[6-(5-methylamino-pyrazin-2-yl)-pyridin-3-yl]-ethyl}-[1,2,4]oxadiazol-5-yl)-pyrazol-1-yl]-2-methyl-propan-2-ol], the IC50 in experiment [1] turned out to be 27 nM; in experiment [2], 54 nM.

`CNc1cnc(-c2ccc([C@@](C)(c3noc(-c4cnn(CC(C)(C)O)c4)n3)C3CC3)cn2)cn1` [Example 157, 1-[4-(3-{(S)-1-Cyclopropyl-1-[6-(5-methylamino-pyrazin-2-yl)-pyridin-3-yl]-ethyl}-[1,2,4]oxadiazol-5-yl)-pyrazol-1-yl]-2-methyl-propan-2-ol]: the IC50 in experiment [1] stood at 420 nM; in experiment [2] it was 969 nM.

`CC(C)(O)Cn1cc(-c2nc(C(C)(c3ccc(-c4cnc(N)c(F)c4)nc3)C3CC3)no2)cn1` (stereo not shown) [Example 158, 1-(4-{3-[1-(6′-Amino-5′-fluoro-[2,3′]bipyridinyl-5-yl)-1-cyclopropyl-ethyl]-[1,2,4]oxadiazol-5-yl}-pyrazol-1-yl)-2-methyl-propan-2-ol]: the IC50 in experiment [1] worked out at 230 nM; in experiment [2], 502 nM.

With `CC(C)(O)Cn1cc(-c2nc(C(C)(c3ccc(-c4cnc5[nH]ccc5n4)nc3)C3CC3)no2)cn1` (stereo not shown) [Example 159, 1-[4-(3-{1-Cyclopropyl-1-[6-(5H-pyrrolo[2,3-b]pyrazin-2-yl)-pyridin-3-yl]-ethyl}-[1,2,4]oxadiazol-5-yl)-pyrazol-1-yl]-2-methyl-propan-2-ol], the values for the 50% inhibitory concentration (IC50) in experiment [1] and in experiment [2] were 27 nM and 167 nM, respectively.

Regarding `C[C@@](c1ccc(-c2cnc(N)cn2)nc1)(c1noc(-c2cnn(C3COC3)c2)n1)C1CC1` [Example 160, 5-(5-{(R)-1-Cyclopropyl-1[5-(1-oxetan-3-yl-1H-pyrazol-4-yl)-[1,2,4]oxadiazol-3-yl]-ethyl}-pyridin-2-yl)-pyrazin-2-ylamine], the IC50 came out at 15 nM in experiment [1] and 23 nM in experiment [2].

Consider `C[C@@](c1ccc(-c2cnc(N)cn2)nc1)(c1noc(-c2cnn(CC#N)c2)n1)C1CC1` [Example 161, [4-(3-{(R)-1-[6-(5-Amino-pyrazin-2-yl)-pyridin-3-yl]-1-cyclopropyl-ethyl}-[1,2,4]oxadiazol-5-yl)-pyrazol-1-yl]-acetonitrile], for which the IC50 in experiment [1] worked out at 21 nM; in experiment [2], 32 nM.

In general, IC50 refers to the concentration that gives 50% inhibition.
